# Assay results taken from patent US20260207575A1, “P[…] THE TREATMENT OF JUVENILE HUNTINGTON DISEASE” (Prilenia Neurotherapeutics Ltd., priority 2022, published 2026).
# Read-outs that look alike come from different tables or passages of the source.
# What was measured:
# [1] = system: HD patients with CAG repeat length >=50; details: 45 mg bid; up to 78 weeks; CAG >=50
# Procedure: (§1) All patients began treatment with a 2-week titration period (45 mg once a day) followed by full-dose treatment for 63-78 weeks.
# (§2) Efficacy was evaluated using the following clinical endpoints: Change from Baseline to Week 78 in composite UHDRS (cUHDRS) total score, Total Functional Capacity (UHDRS-TFC) score and Stroop Word Reading (SWR) testing for cognitive assessment.
# dopamine D2/D3 receptors = details: low-affinity binding; cited from earlier work
# [2] = system: HD patients with CAG repeat length >=50; details: for TFC LS Mean change vs placebo: 45 mg bid (n=1) vs placebo (n=4); for TFC LS Mean change from baseline: n=1
# Procedure: as §1, §2
# The UHDRS-TFC score is a commonly used and regulatory-accepted clinical scale used for assessing the functional capacity of subjects with HD and monitoring the disease's progression and severity over time. This score ranges from 0 to 13 and higher scores indicate better functional capacity. A score of 13 means that the individual is entirely functional with no indications of impairment, while a score of 0 indicates complete dependence on others for daily activities.
# [3] = system: HD patients with CAG repeat length >=50; details: for cUHDRS LS Mean change vs placebo: 45 mg bid (n=1) vs placebo (n=4); for cUHDRS LS Mean change from baseline: n=1
# Procedure: as §1, §2
# The composite Unified Huntington's Disease Rating Scale (cUHDRS) is a clinical scale used for evaluating the severity and progression of Huntington's disease (HD).
# The cUHDRS is a composite scale assessing overall progression of independent key aspects of HD: functional ability, motor symptoms, and cognitive function. cUHDRS comprises four subscales: Total Functional Capacity (TFC), Total Motor Score (TMS), and 2 cognitive measures: the Symbol-Digit Modality Test (SDMT), and Stroop Word Reading (SWR) Test.
# The cUHDRS score is a validated scale used for tracking disease progression and evaluating treatment effectiveness in subjects with HD. Higher scores on cUHDRS indicates better overall disease state. By measuring multiple domains, the cUHDRS provides a global and comprehensive assessment of the disease stage.
# [4] = 45 mg bid, up to 78 weeks, CAG >=50
# [5] = Week 26, 45 mg bid, CAG >=50, positive change = improvement
compound,measurement,setting,value
"CCCN1CCC(c2cccc(S(C)(=O)=O)c2)CC1 [Pridopidine, 4-[3-(methylsulfonyl)phenyl]-1-propyl-piperidine]",effect on SWR / cognitive function compared to placebo (in words),[1],marked improvement
same,binding affinity to dopamine D2/D3 receptors,dopamine D2/D3 receptors,in the micromolar range
same,effect on TFC / functional capacity compared to placebo (in words),[2]; [4],marked improvement
same,TFC LS Mean change vs placebo,[2]; Week 26,2.99 points
same,TFC LS Mean change from baseline,[2]; [5],2.96
same,TFC LS Mean change vs placebo,[2]; Week 39,3.06 points
same,TFC LS Mean change from baseline,"[2]; Week 39, 45 mg bid, CAG >=50",2.96
same,TFC LS Mean change vs placebo,[2]; Week 52,3.00 points
same,TFC LS Mean change from baseline,"[2]; Week 52, 45 mg bid, CAG >=50",2.91
same,TFC LS Mean change vs placebo,[2]; Week 65,2.90 points
same,TFC LS Mean change from baseline,"[2]; Week 65, 45 mg bid, CAG >=50",2.61
same,TFC LS Mean change vs placebo,[2]; Week 78,3.45 points
same,TFC LS Mean change from baseline,"[2]; Week 78, 45 mg bid, CAG >=50",2.93
same,effect on cUHDRS / disease progression compared to placebo (in words),[3]; [4],marked improvement
same,cUHDRS LS Mean change vs placebo,[3]; Week 26,2.52 points
same,cUHDRS LS Mean change from baseline,[3]; [5],1.79
same,cUHDRS LS Mean change vs placebo,[3]; Week 39,2.66 points
same,cUHDRS LS Mean change from baseline,"[3]; Week 39, 45 mg bid, CAG >=50",1.83
same,cUHDRS LS Mean change vs placebo,[3]; Week 52,2.49 points
same,cUHDRS LS Mean change from baseline,"[3]; Week 52, 45 mg bid, CAG >=50",1.67
same,cUHDRS LS Mean change vs placebo,[3]; Week 65,2.32 points
same,cUHDRS LS Mean change from baseline,"[3]; Week 65, 45 mg bid, CAG >=50",1.41
same,cUHDRS LS Mean change vs placebo,[3]; Week 78,2.52 points
same,cUHDRS LS Mean change from baseline,"[3]; Week 78, 45 mg bid, CAG >=50",1.42
